What is called EC50 is the concentration at which the effect is half-maximal. Usually IC50 stands for the concentration that inhibits the measured activity by half.

The text below walks through data of patent publication US8859491B2 (priority 2011, dated 2014).

Experiment [1] addresses T1, GLP-1 receptor (Homo sapiens, UniProt P43220).
T1 construct: expressed in transfected cells; host or cells: HEK293
Put plainly: GLP-1 Activity (cAMP induction), CRE-luciferase reporter in HEK293 cells. It counts as cell-based. As for the experimental part:
(§1) Luminescence was measured after cell lysis and incubation with luciferin.
as §1, §1

In experiment [2] the target is T1, GLP-1 receptor. Put plainly: GLP-1 Binding, [I125]-GLP-1 SPA with receptor membrane extracts.
Experiment [3] in a line: Administration of GLP-1 conjugates to mice, model not stated (FIGS. 15, 19). The class given is in vivo. The note with it: vs GLP-1 agonist alone or GLP-1 agonist/Estrogen(3-ester) conjugate.
The nature of experiment [4]: Example 30: DIO wild type, ERβ KO and ERα KO mice, 400 μg/kg sc daily for two weeks. The class given is in vivo.
Method: Diet-induced obesity wild type mice, estrogen receptor beta knock-out (ERβ KO) mice, and estrogen receptor alpha knock-out (ERα KO) mice were administered subcutaneous injections once per day for two weeks with vehicle or 400 μg/kg of one of the following:
The nature of experiment [5]: Administration of GLP-1 conjugates to ovariectomized mice (FIGS. 13, 14). It counts as in vivo.
Experiment [6] is described as follows: Example 29: DIO mice, 400 μg/kg sc daily for seven days. It counts as in vivo.
Experiment [7] in a line: Example 25: ovariectomized C57BI/6 mice, 4000 μg/kg sc daily for 7 days. The class given is in vivo.
A short description of experiment [8]: Example 27: DIO mice, sc daily for two weeks. The class given is in vivo. As for the experimental part: Diet induced obesity mice were administered subcutaneous injections once per day for two weeks with vehicle or 40 or 400 μg/kg of one of the following: […]
Experiment [9] in a line: Example 16: mice on diabetic diet for 9 months, sc dosing. The note with it: low daily dose, 7 days. The class given is in vivo.
Experiment [10] in a line: Example 19: mice, sc daily for one week. The class given is in vivo. To be noted: between days 0 and 7. As for the experimental part: Mice (N=8, average body weight 55 g) were administered subcutaneous injections once per day for one week with vehicle or one of the following:
Body weight was measured after 7 days and the change in body weight was determined (FIG. 8a). There was little apparent difference in body weight lowering at these doses for the peptides with and without the estrogen.

Experiment [11] is described as follows: Example 20: DIO mice, sc daily. The class given is in vivo. The note with it: 7 days. The procedure:
Diet induced obesity mice (DIO) (N=8, average body weight 61 g) were administered subcutaneous injections once per day for one or two weeks with vehicle or 40, 400, 1200, or 4000 μg/kg of one of the following: […]

A short description of experiment [12]: Example 17: DIO mice, 40 μg/kg sc daily for one week. The class given is in vivo. The note with it: between days 0 and 7. As for the experimental part:
Diet-induced obesity (DIO) mice (N=8, average initial body weight=65 g) were subcutaneously injected once per day for one week with vehicle or 40 μg/kg one of the following:
Body weight was measured after 7 days and the change in body weight and the fat mass were determined (FIG. 6a-b). […] The analysis of fat mass (FIG. 6b) was relatively constant with total loss in body weight.

Experiment [13] addresses T1, GLP-1 receptor. Put plainly: cAMP induction, firefly luciferase reporter assay in HEK293 cells, GLP-1 receptor. It counts as cell-based. The note with it: GLP-1 receptor versus glucagon receptor. The procedure:
The ability of each peptide to induce cAMP was measured in a firefly luciferase-based reporter assay. […] HEK293 cells co-transfected with the receptor and luciferase gene linked to a cAMP responsive element were employed for the bioassay.
At the end of the incubation, 100 μL of LucLite luminescence substrate reagent (Perkin Elmer, Wellesley, Mass.) were added to each well. […] All EC50s and IC50s are reported in the following examples in nM, unless indicated otherwise.
A general note: A reporter such as luciferase makes a cellular process visible.

The nature of experiment [14]: Example 21: mice on diabetic diet, sc daily for one week. It counts as in vivo. To be noted: between days 0 and 7.
Another experiment concerns the target T2, glucocorticoid receptor (Homo sapiens, UniProt P04150).
T2 construct: two clones of HeLa cells (ATCC #CCL-2) transfected with murine mammary tumor virus long terminal repeat-driven firefly luciferase; host or cells: HeLa
T2 sequence (P04150 1-777): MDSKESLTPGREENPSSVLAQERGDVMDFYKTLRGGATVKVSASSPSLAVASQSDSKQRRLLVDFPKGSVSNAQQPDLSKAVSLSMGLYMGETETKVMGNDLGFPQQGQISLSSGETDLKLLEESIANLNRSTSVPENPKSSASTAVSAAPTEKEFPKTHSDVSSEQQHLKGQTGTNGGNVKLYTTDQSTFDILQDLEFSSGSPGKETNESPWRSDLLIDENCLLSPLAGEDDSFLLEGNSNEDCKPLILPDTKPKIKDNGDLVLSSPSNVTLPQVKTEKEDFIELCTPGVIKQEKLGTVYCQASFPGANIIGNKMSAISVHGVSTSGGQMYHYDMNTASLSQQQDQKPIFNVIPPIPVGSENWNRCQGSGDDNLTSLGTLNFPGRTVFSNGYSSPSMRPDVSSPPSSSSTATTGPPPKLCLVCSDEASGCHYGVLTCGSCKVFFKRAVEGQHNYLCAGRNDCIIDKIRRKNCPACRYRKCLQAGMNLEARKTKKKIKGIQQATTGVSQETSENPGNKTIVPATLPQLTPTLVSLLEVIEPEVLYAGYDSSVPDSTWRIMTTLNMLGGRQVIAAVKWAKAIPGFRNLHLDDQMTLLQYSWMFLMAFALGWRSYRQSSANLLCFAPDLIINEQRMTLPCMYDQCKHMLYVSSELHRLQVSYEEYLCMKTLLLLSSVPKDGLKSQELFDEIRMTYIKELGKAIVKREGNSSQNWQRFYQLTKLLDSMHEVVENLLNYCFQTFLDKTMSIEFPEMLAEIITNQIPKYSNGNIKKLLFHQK
Put plainly: Glucocorticoid receptor luciferase reporter gene assay in HeLa cell clones (MMTV-LTR luciferase). The note with it: Example 37; two HeLa reporter clones; compared with unconjugated dexamethasone. It counts as cell-based. As for the experimental part:
The activities of the peptide conjugates in Examples 32 and 33 at the glucocorticoid receptor were tested in the luciferase reporter gene assay using two clones of HeLa cells (ATCC #CCL-2) transfected with murine mammary tumor virus long terminal repeat-driven firefly luciferase.

Non-standard residues stand in square brackets, D forms with d. No end group written: not given here. *: point of attachment. β‑estradiol 3‑ether = C[C@]12CC[C@@H]3c4ccc(O*)cc4CC[C@H]3[C@@H]1CC[C@@H]2O; Aib = CC(C)(N)C(=O)O

T1 sequence (P43220 24-463, species assumed): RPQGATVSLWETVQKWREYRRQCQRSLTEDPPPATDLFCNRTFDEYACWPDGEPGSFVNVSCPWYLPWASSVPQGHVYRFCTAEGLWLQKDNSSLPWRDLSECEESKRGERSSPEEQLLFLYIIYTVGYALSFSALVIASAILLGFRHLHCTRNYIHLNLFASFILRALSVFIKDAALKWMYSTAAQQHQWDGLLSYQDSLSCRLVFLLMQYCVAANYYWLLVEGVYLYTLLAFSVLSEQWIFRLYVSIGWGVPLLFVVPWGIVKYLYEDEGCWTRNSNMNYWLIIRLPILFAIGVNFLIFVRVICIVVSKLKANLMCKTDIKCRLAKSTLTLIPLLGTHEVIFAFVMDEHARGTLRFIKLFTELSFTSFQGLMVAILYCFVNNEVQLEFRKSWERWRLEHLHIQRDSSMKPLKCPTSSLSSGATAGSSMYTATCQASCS

Consider `CC[C@H](C)[C@H](NC(=O)[C@H](Cc1ccccc1)NC(=O)[C@H](CCC(=O)O)NC(=O)[C@H](CCCCN)NC(=O)[C@H](C)NC(=O)[C@H](C)NC(=O)[C@H](CCC(N)=O)NC(=O)[C@H](CCC(=O)O)NC(=O)[C@H](CCC(=O)O)NC(=O)[C@H](CC(C)C)NC(=O)[C@H](Cc1ccc(O)cc1)NC(=O)[C@H](CO)NC(=O)[C@H](CO)NC(=O)[C@@H](NC(=O)[C@H](CC(=O)O)NC(=O)[C@H](CO)NC(=O)[C@@H](NC(=O)[C@H](Cc1ccccc1)NC(=O)[C@@H](NC(=O)CNC(=O)[C@H](CCC(=O)O)NC(=O)C(C)(C)NC(=O)[C@@H](N)Cc1c[nH]cn1)[C@@H](C)O)[C@@H](C)O)C(C)C)C(=O)N[C@@H](C)C(=O)N[C@@H](Cc1c[nH]c2ccccc12)C(=O)N[C@@H](CC(C)C)C(=O)N[C@H](C(=O)N[C@@H](CCCCN)C(=O)NCC(=O)NCC(=O)N1CCC[C@H]1C(=O)N[C@@H](CO)C(=O)N[C@@H](CO)C(=O)NCC(=O)N[C@@H](C)C(=O)N1CCC[C@H]1C(=O)N1CCC[C@H]1C(=O)N1CCC[C@H]1C(=O)N[C@@H](CO)C(=O)N[C@@H](CCCCNC(=O)COc1ccc2c(c1)CC[C@@H]1[C@@H]2CC[C@]2(C)[C@@H](O)CC[C@@H]12)C(N)=O)C(C)C` [GLP-1/Estrogen(3-ether)], for which it took 0.012 ± 0.003 nM to reach a half-maximal effect on GLP-1 receptor [1] (EC50). At GLP-1 receptor [2], this compound came in with an IC50 of 0.717 ± 0.135 nM.
“GLP-1 agonist/Estrogen(3-ether): active, estrogen-stable GLP-1 agonist/Estrogen(3-ether) conjugate (H[Aib]EGTFTSDVSSYLEEQAAKEFIAWLVKGGPSSGAPPPSK(β‑estradiol 3‑ether)-NH2)”: the “change in body weight” value is on record as “significantly greater decrease” in experiment [3] (FIG. 15a); “greater decrease” in [5] (vs GLP-1 agonist alone and the inactive d-amino acid conjugates, FIG. 13a); “greatest decrease in body weight” in experiment [6] (after 7 days); “greater decrease in body weight” in [7] (4000 μg/kg, after 7 days); “significantly greater decrease in body weight” in [8] (40 or 400 μg/kg, after 15 days). In addition, the cumulative food intake entry in [3] (FIG. 15b) was “significantly less food”; in experiment [4] (knock-out mice), “consumed the least amount of food”; in [7] (7 days), “consumed less food”; in experiment [8] (15 days), “consumed significantly less food”. The “decrease in body weight” value in experiment [4] (ERα KO mice, two weeks) is around 20%; in [4] (ERβ KO mice, two weeks), around 15%; in experiment [4] (wild type DIO mice, two week period), around 10%. The fat mass result in [5] (FIG. 13b) and in experiment [7] (4000 μg/kg) was “decrease in fat mass” throughout. Also, the blood glucose levels entry in experiment [5] (FIG. 13d) is listed as “decrease in blood glucose levels greater than vehicle”. In addition, in experiment [5] (vs GLP-1 agonist alone and the inactive d-amino acid conjugates, FIG. 13c), the food intake result was “consumed less food”. Moreover, the “change in blood glucose” value is given as “decrease in blood glucose levels over 7 days, with the decrease greater in mice that were administered the conjugate” in [6] (over 7 days) and “decrease in blood glucose levels greater than vehicle” in [7] (4000 μg/kg).
Turning to “GLP-1(Aib^2E^16C^24(PEG-40 kDa)Cex K^40): GLP-1 analog PEGylated (40 kDa) at Cys24 (H[Aib]EGTFTSDVSSYLEEQAAKEFIC(PEG 40 kDa thioether)WLVKGGPSSGAPPPSK-NH2)”, in experiment [9], the cumulative food intake result was “consumed the least amount of food”.
For the compound “GLP-1(Aib^2E^16Cex K^40)/Estrogen(3-ester): E16 GLP-1 analog conjugated to estrogen by 3-ester (H[Aib]EGTFTSDVSSYLEEQAAKEFIAWLVKGGPSSGAPPPSK-NH2; not fully specified (residue 40))”, the “change in blood glucose levels” value in experiment [10] is given as “greatest change in blood glucose levels”. Also, the cumulative food intake entry in experiment [11] is recorded as “consumed significantly less food than mice that were administered GLP-1 alone”.
On to “GLP-1(Aib^2E^16Cex K^40)/Estrogen(17-ester): E16 GLP-1 analog conjugated to estrogen by 17-ester (H[Aib]EGTFTSDVSSYLEEQAAKEFIAWLVKGGPSSGAPPPSK-NH2; not fully specified (residue 40))”, for which, in experiment [12], the “change in blood glucose” value is listed as “greatest change in blood glucose”.
For the compound “SEQ ID NO: 22: glucagon analog generated by substituting the native glutamine at position 3 with glutamic acid”, the “selectivity for the GLP-1 receptor” value with GLP-1 receptor [13] is recorded as “approximately a tenfold selectivity”.
Turning to “SEQ ID NO: 1659: GLP-1 based glucagon superfamily peptide conjugated to estradiol or estrone through a hydrolyzable linkage ([dA][Aib][dE]G[dT][dF][dT][dS][dD][dV][dS][dS][dY][dL][dE]G[dQ][dA][dA][dK][dE][dA][dI][dA][dW][dL][dV][dK]GG[dP][dS][dS]G[dA][dP][dP][dP][dS]K-NH2; not fully specified (residue 40))”, the “change in blood glucose levels” value in experiment [14] is on record as “greater change in blood glucose levels”.
As for [Aib2, E16]GLP-1-CEX-Lys40(NHCO—O-DEX), the “agonist activity at the glucocorticoid receptor” value on glucocorticoid receptor is given as “retained the greatest amount of activity at the glucocorticoid receptor”.
